Activity calls are given as the source filed them. The rule behind the calls is not given here.

Usually Ki stands for the equilibrium dissociation constant of an inhibitor or competing ligand from its target.

Assay [1] addresses T1, Thioredoxin (Homo sapiens) (UniProt P10599).
T1 sequence (whole entry): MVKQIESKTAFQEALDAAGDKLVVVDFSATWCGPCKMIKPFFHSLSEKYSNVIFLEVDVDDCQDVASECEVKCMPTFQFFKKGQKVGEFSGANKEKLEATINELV
As to the kind of experiment: Covalent binding affinity to human recombinant TRX-1 assessed as change in protein configuration at 0.1 mM by MALDITOF mass spectrometry.

The target in assay [2] is T2, Thioredoxin, mitochondrial (Homo sapiens) (UniProt Q99757).
T2 sequence (whole entry): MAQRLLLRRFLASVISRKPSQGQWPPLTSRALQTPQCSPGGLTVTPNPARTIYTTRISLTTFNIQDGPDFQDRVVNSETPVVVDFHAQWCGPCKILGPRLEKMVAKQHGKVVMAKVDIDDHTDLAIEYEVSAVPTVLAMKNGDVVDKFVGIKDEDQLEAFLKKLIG
As to the kind of experiment: Covalent binding affinity to human recombinant TRX-2 assessed as change in protein configuration at 0.05 mM by MALDITOF mass spectrometry.

The target in assay [3] is T1, Thioredoxin (Homo sapiens). As to the kind of experiment: Covalent binding affinity to TRX-1 in human […] cells assessed as compound-TRX-1 adduct formation at 3 uM after 2 hrs by immunoblotting in presence of GSH. The class given is cell-based. (In general: Immunoblotting shows a protein as a band on a membrane.)
For assay [4], the target named is T2, Thioredoxin, mitochondrial (Homo sapiens). In words: Covalent binding affinity to TRX-2 in human […] cells at 3 uM after 2 hrs by immunofluorescence assay. The format is cell-based.
Assay [5] addresses T1, Thioredoxin (Homo sapiens). In words: Covalent binding affinity to TRX-1 in human […] cells at 3 uM after 2 hrs by immunofluorescence assay. The class given is cell-based.
The target in assay [6] is T2, Thioredoxin, mitochondrial (Homo sapiens). In words: Covalent binding affinity to TRX-2 in human […] cells assessed as compound-TRX-2 adduct formation at 3 uM after 2 hrs by immunoblotting in presence of GSH. The class given is cell-based.
The target is the same in assay [7]. As to the kind of experiment: Covalent binding affinity to human recombinant TRX-2 C assessed as modification in C31/C34 residues by LC-MS/MS analysis.
The target in assay [8] is T1, Thioredoxin (Homo sapiens). As to the kind of experiment: Inhibition of human recombinant TRX-1 by insulin reduction assay. The following applies: TDE = time-dependent effect.
Assay [9] has as its target T3, Thioredoxin (Homo sapiens, UniProt P10599).
T3 sequence (P10599 whole entry): T1 sequence (whole entry)
In words: (§1) Inhibition of human recombinant TRX-1 up to 60 mins by insulin reduction assay.

The target of assay [10] is T1, Thioredoxin (Homo sapiens). The assay is described as §1.
Assay [11] concerns the target T2, Thioredoxin, mitochondrial (Homo sapiens). As to the kind of experiment: Covalent binding affinity to human recombinant TRX-2 assessed as change in protein configuration at 20 uM by LC-ESIQTOF mass spectrometry. The following applies: TDE = time-dependent effect.
In assay [12] the target is T1, Thioredoxin (Homo sapiens). As to the kind of experiment: Covalent binding affinity to human recombinant TRX-1 C assessed as modification in C62/C69/C73 residues by LC-MS/MS analysis.
Assay [13] deals with T1, Thioredoxin (Homo sapiens). As to the kind of experiment: Inhibition of TRX1 in human […] cells after 2 hrs by insulin reduction assay. The format is cell-based.
In assay [14] the target is T2, Thioredoxin, mitochondrial (Homo sapiens). As to the kind of experiment: Inhibition of human recombinant TRX-2 by insulin reduction assay. The conditions noted are these: TDE = time-dependent effect.
Assay [15] deals with T4, Thioredoxin, mitochondrial (Homo sapiens, UniProt Q99757).
T4 sequence (Q99757 whole entry): T2 sequence (whole entry)
As to the kind of experiment: (§2) Inhibition of human recombinant TRX-2 up to 60 mins by insulin reduction assay.

Assay [16] deals with T2, Thioredoxin, mitochondrial (Homo sapiens). The assay is described as §2.
Assay [17] deals with T1, Thioredoxin (Homo sapiens). As to the kind of experiment: Covalent binding affinity to human recombinant TRX-1 assessed as change in protein configuration at 50 uM by LC-ESIQTOF mass spectrometry. The conditions noted are these: TDE = time-dependent effect.

In the case of `CC(C)=CCC/C(C)=C/Cc1c(O)c(CC=C(C)C)c2c(c1O)C(=O)C1=C[C@@H]3C[C@H]4C(C)(C)O[C@@](C/C=C(/C)C(=O)O)(C3=O)[C@@]14O2`, the result in assay [1] and in [2] was Active.
Consider `CC(C)=CCC[C@]1(C)C=Cc2c(O)c3c(c(CC=C(C)C)c2O1)O[C@]12C(=C[C@@H]4C[C@H]1C(C)(C)O[C@@]2(C/C=C(/C)C(=O)NCCCCCNC(=O)CCCC[C@@H]1SC[C@@H]2NC(=O)N[C@@H]21)C4=O)C3=O`, for which the outcome in assay [3], in [4], in assay [5] and in [6] was Active.
Turning to `CC(C)=CCC[C@]1(C)C=Cc2c(O)c3c(c(CC=C(C)C)c2O1)O[C@]12C(C3=O)C(O)[C@@H]3C[C@H]1C(C)(C)O[C@@]2(C/C=C(/C)C(=O)O)C3=O` (some centres undefined), the result in [1] and in [2] was inactive.
Turning to `CC(C)=CCC[C@]1(C)C=Cc2c(O)c3c(c(CC=C(C)C)c2O1)O[C@]12C(C3=O)[C@@H](S(=O)(=O)O)[C@@H]3C[C@H]1C(C)(C)O[C@@]2(C/C=C(/C)C(=O)O)C3=O` (some centres undefined), the outcome in assay [1] and in assay [2] was inactive.
As to `CC(C)=CCC[C@]1(C)C=Cc2c(O)c3c(c(CC=C(C)C)c2O1)O[C@]12C(C3=O)[C@H](S(=O)(=O)O)[C@@H]3C[C@H]1C(C)(C)O[C@@]2(C/C=C(/C)C(=O)O)C3=O` (some centres undefined), the outcome in assay [1] and in assay [2] was inactive.
On to `CC(C)=CCC[C@]1(C)C=Cc2c(O)c3c(c(CC=C(C)C)c2O1)O[C@]12C(C[C@@H]4C[C@H]1C(C)(C)O[C@@]2(C/C=C(/C)C(=O)O)C4=O)C3=O` (some centres undefined), for which the result in assay [1] and in assay [2] was inactive.
On to `CC(C)=CCC[C@]1(C)C=Cc2c(O)c3c(c(CC=C(C)C)c2O1)O[C@]12C(=C[C@@H]4C[C@H]1C(C)(C)O[C@@]2(C/C=C(/C)C(=O)O)C4=O)C3=O` [GAMBOGIC ACID], for which the outcome in assay [7], in [12], in assay [1] and in assay [2] was Active. Also, the inhibition result in [8] was “tde”; in [10], “Dose-dependent effect”; in [13], “Dose-dependent effect”; in assay [14], “tde”; in assay [16], “Dose-dependent effect”. Moreover, the Ki in assay [9] is 3110 nM; in assay [15] it was 1310 nM. In addition, the Kinact in assay [10] was found to be 0.063 min⁻¹; in assay [16] it was 0.037 min⁻¹. For the same compound, the Activity result in [11] and in assay [17] was “tde” each time.

These data come from ChEMBL document CHEMBL2203071, “Gambogic acid deactivates cytosolic and mitochondrial thioredoxins by covalent binding to the functional domain” (J Nat Prod, 2012).
